{"source": "ChEMBL document CHEMBL5154741", "about": "“Antibacterial alkylguanidino ureas: Molecular simplification approach, searching for membrane-based MoA” (Eur J Med Chem, 2022)", "key": {"Pseudomonas aeruginosa": {"system": "Pseudomonas aeruginosa", "experiment": "Antibacterial activity against Pseudomonas aeruginosa ATCC 27853 assessed as bacterial growth inhibition incubated for 18 hrs by micro-dilution broth method", "format": "functional"}, "Enterobacter cloacae": {"system": "Enterobacter cloacae", "experiment": "Antibacterial activity against Enterobacter cloacae VA-417/02 assessed as bacterial growth inhibition incubated for 18 hrs by CLSI based micro-dilution broth method", "format": "functional"}, "Acinetobacter baumannii": {"system": "Acinetobacter baumannii", "experiment": "Antibacterial activity against Acinetobacter baumannii AC-54/97 assessed as bacterial growth inhibition incubated for 18 hrs by CLSI based micro-dilution broth method", "format": "functional"}, "Cell membrane [1]": {"system": "Cell membrane", "experiment": "Disruption of membrane integrity in Staphylococcus aureus ATCC 25923 assessed as increase in PI uptake at 16 ug/ml measured after 1 hr by SYTO9/PI staining based fluorometric analysis", "settings": "dose 16.0 µg/ml"}, "Cell membrane [2]": {"system": "Cell membrane", "experiment": "Disruption of membrane integrity in Pseudomonas aeruginosa ATCC 27853 assessed as increase in PI positive cells at 16 ug/ml measured after 1 hr by SYTO9/PI staining based confocal laser scanning microscope analysis", "format": "subcellular", "settings": "dose 16.0 µg/ml"}, "Cell membrane [3]": {"system": "Cell membrane", "experiment": "Disruption of membrane integrity in Acinetobacter baumannii ATCC 17978 assessed as increase in PI uptake at 16 ug/ml measured after 15 mins by SYTO9/PI staining based fluorometric analysis", "settings": "dose 16.0 µg/ml"}, "[4]": {"experiment": "Apparent permeability of the compound across bacterial inner membrane mimic POPE/POPG (6:4) in PBS buffer assessed as membrane retention at pH 7.4 incubated for 5 hrs by PAMPA based UV-Vis spectrophotometric analysis", "format": "ADME, cell membranes", "settings": "pH 7.4, 5 h"}, "Klebsiella pneumoniae": {"system": "Klebsiella pneumoniae", "experiment": "Antibacterial activity against pan drug-resistant Klebsiella pneumoniae S1-081Rb assessed as bacterial growth inhibition incubated for 18 hrs by CLSI based micro-dilution broth method", "format": "functional"}, "Lipid bilayer": {"system": "Lipid bilayer", "experiment": "Binding affinity to bacterial membrane mimic POPG large unilamellar vesicle assessed as hyperchromic shift at 125 uM measured after 1 hr by UV-Vis spectrophotometric analysis"}}, "note": "Calls of active or inactive are those of the source. The calls are words filed in the database; no cut-off is given here.", "data": [{"compound": "CCCCCCCCN(CCCCCCCCNC(=N)NCC1CC1)C(=O)N(CCCCCCNC(=N)NCC1CC1)CCCCCCNC(=N)NCC1CC1", "values": [{"measurement": "MIC", "setting": "Pseudomonas aeruginosa", "value": 16, "unit": "µg/mL"}, {"measurement": "MBC", "setting": "Enterobacter cloacae", "value": 8, "unit": "µg/mL"}, {"measurement": "MIC", "setting": "Enterobacter cloacae", "value": 8, "unit": "µg/mL"}, {"measurement": "MBC", "setting": "Acinetobacter baumannii", "value": 8, "unit": "µg/mL"}, {"measurement": "MIC", "setting": "Acinetobacter baumannii", "value": 8, "unit": "µg/mL"}, {"measurement": "Activity", "setting": "Cell membrane [1]", "value": "Active"}, {"measurement": "Activity", "setting": "Cell membrane [2]", "value": "Active"}, {"measurement": "Activity", "setting": "Cell membrane [3]", "value": "Active"}, {"measurement": "R%", "setting": "[4]", "value": 65.2, "unit": "%"}, {"measurement": "MBC", "setting": "Klebsiella pneumoniae", "value": 8, "unit": "µg/mL"}, {"measurement": "MIC", "setting": "Klebsiella pneumoniae", "value": 8, "unit": "µg/mL"}, {"measurement": "Activity", "setting": "Lipid bilayer", "value": "Active"}]}, {"compound": "N=C(NCCCCCCCCNC(N)=O)NCC1CC1.O=C(O)C(F)(F)F", "values": [{"measurement": "MIC", "setting": "Pseudomonas aeruginosa", "value": 16, "unit": "µg/mL"}, {"measurement": "MBC", "setting": "Enterobacter cloacae", "value": 8, "unit": "µg/mL"}, {"measurement": "MIC", "setting": "Enterobacter cloacae", "value": 4, "unit": "µg/mL"}, {"measurement": "MBC", "setting": "Acinetobacter baumannii", "value": 16, "unit": "µg/mL"}, {"measurement": "MIC", "setting": "Acinetobacter baumannii", "value": 16, "unit": "µg/mL"}, {"measurement": "Activity", "setting": "Cell membrane [1]", "value": "Active"}, {"measurement": "Activity", "setting": "Cell membrane [2]", "value": "Active"}, {"measurement": "Activity", "setting": "Cell membrane [3]", "value": "Active"}, {"measurement": "R%", "setting": "[4]", "value": 3.2, "unit": "%"}, {"measurement": "MBC", "setting": "Klebsiella pneumoniae", "value": 4, "unit": "µg/mL"}, {"measurement": "MIC", "setting": "Klebsiella pneumoniae", "value": 4, "unit": "µg/mL"}, {"measurement": "Activity", "setting": "Lipid bilayer", "value": "Active"}]}, {"compound": "N=C(N)NCCCCCCCCN(CCCCCCCCNC(=N)NCC1CC1)C(=O)N(CCCCCCCCNC(=N)NCC1CC1)CCCCCCCCNC(=N)NCC1CC1.O=C(O)C(F)(F)F", "values": [{"measurement": "MIC", "setting": "Pseudomonas aeruginosa", "value": 8, "unit": "µg/mL"}, {"measurement": "MBC", "setting": "Enterobacter cloacae", "value": 2, "unit": "µg/mL"}, {"measurement": "MIC", "setting": "Enterobacter cloacae", "value": 2, "unit": "µg/mL"}, {"measurement": "MBC", "setting": "Acinetobacter baumannii", "value": 8, "unit": "µg/mL"}, {"measurement": "MIC", "setting": "Acinetobacter baumannii", "value": 8, "unit": "µg/mL"}, {"measurement": "Activity", "setting": "Cell membrane [1]", "value": "Active"}, {"measurement": "Activity", "setting": "Cell membrane [2]", "value": "Active"}, {"measurement": "Activity", "setting": "Cell membrane [3]", "value": "Active"}, {"measurement": "R%", "setting": "[4]", "value": 40.8, "unit": "%"}, {"measurement": "MBC", "setting": "Klebsiella pneumoniae", "value": 2, "unit": "µg/mL"}, {"measurement": "MIC", "setting": "Klebsiella pneumoniae", "value": 2, "unit": "µg/mL"}, {"measurement": "Activity", "setting": "Lipid bilayer", "value": "Active"}]}]}
